Assays:
CWR22R = test: cells; format: functional, cell-based; conditions: Homo sapiens, 22Rv1, […]
Description: Antiproliferative activity against human 22Rv1 cells assessed as inhibition of cell growth incubated for 7 days by celltiter-glo assay

in vivo [1] = conditions: male, C57BL/6, mouse, iv, 1 mg/kg
in vivo [2] = conditions: male, C57BL/6, mouse, iv, 1 mg/kg; remark: listed apart in the source
Description: Volume of distribution at steady state in male C57BL/6 mouse at 1 mg/kg, iv

in vivo [3] = conditions: male, C57BL/6, mouse, iv, 1 mg/kg; remark: listed apart in the source
Description: Half life in male C57BL/6 mouse at 1 mg/kg, iv

in vivo [4] = conditions: male, C57BL/6, mouse, iv, 1 mg/kg; remark: listed apart in the source
Description: C0 in male C57BL/6 mouse at 1 mg/kg, iv

in vivo [5] = conditions: male, C57BL/6, mouse, iv, 1 mg/kg; remark: listed apart in the source
Description: Clearance in male C57BL/6 mouse at 1 mg/kg, iv

in vivo [6] = conditions: male, C57BL/6, mouse, brain, iv, 1 mg/kg
Description: Ratio of drug concentration in male C57BL/6 mouse brain to plasma at 1 mg/kg, iv measured after 1 hr

in vitro [7] = conditions: human, microsomes
LNCaP = test: cells; format: functional, cell-based; conditions: Homo sapiens
Description: Antiproliferative activity against human LNCaP cells assessed as inhibition of cell growth incubated for 7 days by celltiter-glo assay

in vitro [8] = conditions: mouse, microsomes
Description: Metabolic stability in mouse liver microsomes assessed as half life

in vitro [9] = conditions: human, microsomes; remark: listed apart in the source
cells = format: functional, cell-based; conditions: Homo sapiens, Enzalutamide-resistant C4-2B
LNCaP C4-2 = test: cells; format: functional, cell-based; conditions: Homo sapiens
Description: Antiproliferative activity against human C4-2 cells assessed as inhibition of cell growth incubated for 7 days by celltiter-glo assay

in vitro [10] = conditions: mouse, microsomes; remark: listed apart in the source

C[C@](O)(Cn1ccc2cc(F)ccc21)C(=O)Nc1ccc(C#N)c(C(F)(F)F)c1
IC50 (CWR22R): 3.53 µM

COc1cc(C#N)ccc1N1C2CCC1CN(C[C@](C)(O)C(=O)Nc1ccc(C#N)c(C(F)(F)F)c1)C2
IC50 (CWR22R): 4.12 µM

C[C@](O)(CN1C[C@@H]2C[C@H]1CN2c1ccc(C#N)cc1)C(=O)Nc1ccc(C#N)c(C(F)(F)F)c1
IC50 (CWR22R): 10 µM

Cc1cc(C#N)ccc1N1C2CCC1CN(C[C@](C)(O)C(=O)Nc1ccc(C#N)c(C(F)(F)F)c1)C2
IC50 (CWR22R): 3.08 µM

C[C@](O)(CN1CC2CCC(C1)N2c1cnc(C#N)nc1)C(=O)Nc1ccc(C#N)c(C(F)(F)F)c1
IC50 (CWR22R): 5.24 µM

COc1c(C#N)ccc(NC(=O)[C@@](C)(O)CN2CC3CCC(C2)N3c2ccc(C#N)cc2)c1F
IC50 (CWR22R): 5.3 µM

C[C@](O)(CN1CC2CCC(C1)N2c1ccc(C#N)cc1)C(=O)Nc1cnc(C#N)c(Cl)c1
AUC(0-t) (in vivo [1]): 1030 ng·h/mL | Vd (in vivo [2]): 1.42 L/kg | half-life (in vivo [3]): 96.6 min | C0 (in vivo [4]): 1140 ng/mL | clearance (in vivo [5]): 16.2 mL/min/kg | Kp at 1 h (in vivo [6]): 0.33 | IC50 (CWR22R): 1.68 µM

C[C@](O)(CN1CC2CCC(C1)N2c1ccc(C#N)cn1)C(=O)Nc1ccc(C#N)c(C(F)(F)F)c1
IC50 (CWR22R): 2.28 µM

COc1cc(NC(=O)[C@@](C)(O)CN2CC3CCC(C2)N3c2ccc(C#N)cc2)ccc1C#N
IC50 (CWR22R): 2.23 µM

C[C@](O)(CN1CC2CCC(C1)N2c1cnc(C#N)nc1)C(=O)Nc1cnc(C#N)c(C(F)(F)F)c1
IC50 (CWR22R): 15.8 µM

C[C@](O)(CN1CC2CCC(C1)N2Cc1ccc(C#N)cc1)C(=O)Nc1ccc(C#N)c(C(F)(F)F)c1
IC50 (CWR22R): 20.5 µM

C[C@](O)(CN1CC2CCC(C1)N2c1ccc(C#N)cc1)C(=O)Nc1ccc([N+](=O)[O-])c(C(F)(F)F)c1
IC50 (CWR22R): 1.65 µM

C[C@](O)(CN1CC2CCC(C1)N2c1ccc(C#N)cc1)C(=O)Nc1ccc(C#N)c(Cl)c1
AUC(0-t) (in vivo [1]): 2330 ng·h/mL | half-life (in vitro [7]): 9.95 min | Vd (in vivo [2]): 1.87 L/kg | half-life (in vivo [3]): 244 min | IC50 (LNCaP): 1570 nM | half-life (in vitro [8]): 12.2 min | C0 (in vivo [4]): 1420 ng/mL | microsomal CLint (in vitro [9]): 139 µL/min/mg | IC50 (cells): 5.23 µM | clearance (in vivo [5]): 7.09 mL/min/kg | IC50 (LNCaP C4-2): 1190 nM | Kp at 1 h (in vivo [6]): 0.55 | microsomal CLint (in vitro [10]): 114 µL/min/mg

C[C@](O)(CN1CC2CCC(C1)N2c1ncc(C#N)cn1)C(=O)Nc1ccc(C#N)c(C(F)(F)F)c1
IC50 (CWR22R): 4.05 µM

C[C@](O)(CN1CC2CCC(C1)N2c1ccc(F)cc1)C(=O)Nc1ccc(C#N)c(C(F)(F)F)c1
IC50 (CWR22R): 12.9 µM

CNC(=O)c1ccc(N2C(=S)N(c3cnc(C#N)c(C(F)(F)F)c3)C(=O)C23CCC3)cc1F [APALUTAMIDE]
IC50 (CWR22R): > 100 µM

N#Cc1ccc(O[C@H]2CC[C@H](NC(=O)c3ccc(N4CCC(CN5CCN(c6cc7c(cc6F)C(=O)N(C6CCC(=O)NC6=O)C7=O)CC5)CC4)nn3)CC2)cc1Cl (some centres not stated) [BAVDEGALUTAMIDE]
IC50 (CWR22R): > 100 µM

CC(O)c1cc(C(=O)N[C@@H](C)Cn2ccc(-c3ccc(C#N)c(Cl)c3)n2)n[nH]1 (some centres not stated) [DAROLUTAMIDE]
IC50 (CWR22R): 31.2 µM

C[C@]12CC[C@H](O)CC1=CC[C@@H]1[C@@H]2CC[C@]2(C)C(n3cnc4ccccc43)=CC[C@@H]12 [GALETERONE]
IC50 (CWR22R): 12 µM

— ChEMBL document CHEMBL6109158, “Discovery of Novel Bifunctional Agents as Potent Androgen Receptor Antagonists and Degraders for the Treatment of Enzalutamide-Resistant Prostate Cancer” (J Med Chem, 2025)
